Experimental data: publication PMC13395458, “Structural dynamics of IRE1 and its interaction with unfolded peptides” (eLife, 2026)
Where two headings read alike, the source gives them in different places. Ends that are not written are not given here.

T1: hIRE1α LD E102R (Homo sapiens, UniProt O75460, E102R)
T1 construct: His6 (N, cleaved yes); made in house; host or cells: Escherichia coli BL21DE3* RIPL
T1 sequence (O75460 24-443 E102R): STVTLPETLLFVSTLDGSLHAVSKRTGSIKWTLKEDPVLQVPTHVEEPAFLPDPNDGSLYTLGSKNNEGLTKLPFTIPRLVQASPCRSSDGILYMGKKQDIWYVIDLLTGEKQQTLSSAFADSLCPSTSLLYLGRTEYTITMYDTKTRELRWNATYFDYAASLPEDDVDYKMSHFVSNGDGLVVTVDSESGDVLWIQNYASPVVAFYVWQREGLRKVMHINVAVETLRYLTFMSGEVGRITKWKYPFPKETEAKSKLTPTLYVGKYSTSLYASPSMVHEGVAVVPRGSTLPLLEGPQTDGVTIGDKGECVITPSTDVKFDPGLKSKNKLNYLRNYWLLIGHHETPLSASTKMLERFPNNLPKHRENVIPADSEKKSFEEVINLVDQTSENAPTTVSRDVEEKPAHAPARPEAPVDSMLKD

T2: hIRE1α LD wild-type (Homo sapiens, UniProt O75460)
T2 construct: His6 (N, cleaved yes); made in house; host or cells: Escherichia coli BL21DE3* RIPL
T2 sequence (O75460 24-443): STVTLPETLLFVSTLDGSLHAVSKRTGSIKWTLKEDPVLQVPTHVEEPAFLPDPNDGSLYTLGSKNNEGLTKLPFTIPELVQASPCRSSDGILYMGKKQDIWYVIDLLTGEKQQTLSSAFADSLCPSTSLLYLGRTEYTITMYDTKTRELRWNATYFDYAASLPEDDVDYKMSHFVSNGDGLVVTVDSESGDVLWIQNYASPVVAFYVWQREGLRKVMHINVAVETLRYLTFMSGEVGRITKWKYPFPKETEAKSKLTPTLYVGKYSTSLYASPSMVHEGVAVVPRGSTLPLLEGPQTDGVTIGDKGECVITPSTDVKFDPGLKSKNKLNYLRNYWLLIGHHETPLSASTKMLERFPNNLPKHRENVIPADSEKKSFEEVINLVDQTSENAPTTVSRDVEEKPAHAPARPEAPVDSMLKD

T3: hIRE1α LD Y161R (Homo sapiens, UniProt O75460, Y161R)
T3 construct: His6 (N, cleaved yes); made in house; host or cells: Escherichia coli BL21DE3* RIPL
T3 sequence (O75460 24-443 Y161R): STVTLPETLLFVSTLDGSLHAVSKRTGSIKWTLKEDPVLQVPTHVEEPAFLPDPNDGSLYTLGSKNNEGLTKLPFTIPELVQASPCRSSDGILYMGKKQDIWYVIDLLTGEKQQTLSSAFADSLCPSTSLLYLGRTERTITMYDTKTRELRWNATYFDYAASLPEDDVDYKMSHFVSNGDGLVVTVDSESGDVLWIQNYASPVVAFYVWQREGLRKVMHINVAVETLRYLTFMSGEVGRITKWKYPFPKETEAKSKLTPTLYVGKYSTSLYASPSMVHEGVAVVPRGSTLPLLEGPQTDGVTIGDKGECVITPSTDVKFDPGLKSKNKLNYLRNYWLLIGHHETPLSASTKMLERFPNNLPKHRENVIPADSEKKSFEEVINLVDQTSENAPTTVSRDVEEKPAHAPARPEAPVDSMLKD

T4: MPZ1N-2X peptide, 5-FAM labelled (5 carboxyfluorescein (5-FAM) at its N-terminus)
T4 construct: model unfolded peptide derived from Myelin Protein Zero (MPZ); not a plain stretch of the natural protein; source: synthetic peptide; bought: GenScript (>95% purity)
T4 peptide: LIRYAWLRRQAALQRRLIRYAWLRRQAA


What was measured:
hIRE1α = settings: available binding affinities to hIRE1α; fluorescence anisotropy; ref Karagöz et al., 2017; Kettel et al., 2024; cited from earlier work
Source text: page 1: Structural Dynamics of IRE1 and its Interaction with Unfolded Peptides Supplementary File 2 Polypeptide K1/2 [µM] […] References Elif Karag¨oz G, Acosta-Alvear D, Nguyen HT, Lee CP, Chu F, Walter P. An unfolded protein-induced conformational switch activates mammalian IRE1. eLife. 2017;6:e30700. Kettel P, Marosits L, Spinetti E, Rechberger M, Giannini C, Radler P, et al. Disordered regions in the IRE1 ER lumenal domain medi ...

hIRE1α LD E102R = biological target: T1, hIRE1α LD E102R; experiment: Fluorescence anisotropy, binding of labeled MPZ1N-2X to hIRE1α LD E102R
Protocol: (§1) To express hIRE1α LD (24–443) human cDNA sequences were cloned into pET47b(+) to create a coding sequence with N-terminal His6-tag. Mutations of hIRE1α LD were introduced by overlap extension PCR and restriction cloning into pET47b(+). For expression of the proteins, the plasmid of interest was transformed into Escherichia coli strain BL21DE3* RIPL (Agilent Technologies). Cells were grown in Luria Broth until OD600 = 0.6–0.8. Protein expression was induced with 0.6 mM IPTG, and cells were grown in 20°C overnight. For purification, cells after harvesting were resuspended in Lysis Buffer (50 mM HEPES pH 7.2, 400 mM NaCl, 20 mM imidazole, 5% glycerol, 5 mM β -mercaptoethanol) and were lysed in Constans Systems cell disruptor at 25,000 psi. […] Protein concentrations were determined using the extinction coefficient at 280 nm predicted by the Expasy ProtParam tool (http://web.expasy.org/protparam/).
(§2) For fluorescence anisotropy measurements, the MPZ1-N-2X peptide attached to 5 carboxyfluorescein (5-FAM) at its N-terminus was obtained from GenScript at >95% purity. Binding affinities of hIRE1α LD mutants to FAM-labeled peptides were determined by measuring the change in fluorescence anisotropy on a Tecan CM Spark Micro Plate Reader with excitation at 485 nm and emission at 525 nm with increasing concentrations of hIRE1α LD variants. […]

hIRE1α LD wild-type = biological target: T2, hIRE1α LD wild-type; experiment: Fluorescence anisotropy, binding of labeled MPZ1N-2X to hIRE1α LD WT
Protocol: as §1, §2

hIRE1α LD Y161R = biological target: T3, hIRE1α LD Y161R; experiment: Fluorescence anisotropy, binding of labeled MPZ1N-2X to hIRE1α LD Y161R; settings: 95% confidence interval of KD
Protocol: as §1, §2

[1] = biological target: T4, MPZ1N-2X peptide, 5-FAM labelled; experiment: fluorescence polarisation; fluorescence anisotropy; 90 nM 5-FAM-labelled peptide with increasing concentrations of hIRE1α LD variants; 25 mM HEPES pH 7.2, 150 mM NaCl, 2 mM DTT, 0.025% Tween 20; 30 min at 25°C; Hill fit, apparent K1/2 (does not reflect the dissociation constant); settings: both partners purified
[2] = 95% confidence interval of KD, read-out: KD 95% confidence interval

| Molecule | K1/2 (hIRE1α) | K1/2 (apparent) [1] | also measured |
| --- | --- | --- | --- |
| LIRYAWLRRQAA [MPZ1-N, unfolded peptide derived from Myelin Protein Zero, …] | 16 µM |  |  |
| LIRYAWLRRQAALQRRLIRYAWLRRQAA [MPZ1N-2X] |  |  | Kd (hIRE1α LD E102R; [2]): 5.84 to 6.96 µM; Kd (hIRE1α LD E102R; fluorescence anisotropy, 5-FAM-labeled peptide 90 nM, pH 7.2, 30 min, 25°C, R2 0.9992, read-out: KD): 6.35 µM; Kd (hIRE1α LD wild-type; [2]): 1.81 to 2.53 µM; Kd (hIRE1α LD wild-type; fluorescence anisotropy, 5-FAM-labeled peptide 90 nM, pH 7.2, 30 min, 25°C, R2 0.9918, read-out: KD): 2.14 µM; Kd (hIRE1α LD Y161R): 4.3 to 7.1 µM |
| LQRRISAME [MPZ1-C, peptide derived from Myelin Protein Zero, …] | 572 µM |  |  |
| LIDYAWLDDQAALQDDLIDYAWLDDQAA [MPZ1N-2X-RD, MPZ1N-2X with all the arginines mutated to aspartic acid] | binding impaired |  |  |
| human IRE1α luminal domain (hIRE1α LD, 24–443), wild type (domain or fragment, UniProt O75460 24-443, looked up, Inositol-requiring enzyme 1 alpha (IRE1α), human, luminal domain, residues 24-443, cloned from human cDNA into pET47b(+); also called hIRE1α LD WT; WT; source: E. coli BL21DE3* RIPL, purified (Ni-NTA, HiTRAP-Q, Superdex 200); not shown: His6, N-terminal, cleaved) STVTLPETLLFVSTLDGSLHAVSKRTGSIKWTLKEDPVLQVPTHVEEPAFLPDPNDGSLYTLGSKNNEGLTKLPFTIPELVQASPCRSSDGILYMGKKQDIWYVIDLLTGEKQQTLSSAFADSLCPSTSLLYLGRTEYTITMYDTKTRELRWNATYFDYAASLPEDDVDYKMSHFVSNGDGLVVTVDSESGDVLWIQNYASPVVAFYVWQREGLRKVMHINVAVETLRYLTFMSGEVGRITKWKYPFPKETEAKSKLTPTLYVGKYSTSLYASPSMVHEGVAVVPRGSTLPLLEGPQTDGVTIGDKGECVITPSTDVKFDPGLKSKNKLNYLRNYWLLIGHHETPLSASTKMLERFPNNLPKHRENVIPADSEKKSFEEVINLVDQTSENAPTTVSRDVEEKPAHAPARPEAPVDSMLKD |  | 2.14 µM |  |
| human IRE1α luminal domain (hIRE1α LD, 24–443) Y161R (domain or fragment, UniProt O75460 24-443, looked up, Inositol-requiring enzyme 1 alpha (IRE1α), human, luminal domain, residues 24-443, with Y161R introduced by overlap extension PCR; source: E. coli BL21DE3* RIPL, purified (Ni-NTA, HiTRAP-Q, Superdex 200); not shown: His6, N-terminal, cleaved) STVTLPETLLFVSTLDGSLHAVSKRTGSIKWTLKEDPVLQVPTHVEEPAFLPDPNDGSLYTLGSKNNEGLTKLPFTIPELVQASPCRSSDGILYMGKKQDIWYVIDLLTGEKQQTLSSAFADSLCPSTSLLYLGRTERTITMYDTKTRELRWNATYFDYAASLPEDDVDYKMSHFVSNGDGLVVTVDSESGDVLWIQNYASPVVAFYVWQREGLRKVMHINVAVETLRYLTFMSGEVGRITKWKYPFPKETEAKSKLTPTLYVGKYSTSLYASPSMVHEGVAVVPRGSTLPLLEGPQTDGVTIGDKGECVITPSTDVKFDPGLKSKNKLNYLRNYWLLIGHHETPLSASTKMLERFPNNLPKHRENVIPADSEKKSFEEVINLVDQTSENAPTTVSRDVEEKPAHAPARPEAPVDSMLKD |  | 5.4 µM |  |
| human IRE1α luminal domain (hIRE1α LD, 24–443) E102R (domain or fragment, UniProt O75460 24-443, looked up, Inositol-requiring enzyme 1 alpha (IRE1α), human, luminal domain, residues 24-443, with E102R introduced by overlap extension PCR; source: E. coli BL21DE3* RIPL, purified (Ni-NTA, HiTRAP-Q, Superdex 200); not shown: His6, N-terminal, cleaved) STVTLPETLLFVSTLDGSLHAVSKRTGSIKWTLKEDPVLQVPTHVEEPAFLPDPNDGSLYTLGSKNNEGLTKLPFTIPRLVQASPCRSSDGILYMGKKQDIWYVIDLLTGEKQQTLSSAFADSLCPSTSLLYLGRTEYTITMYDTKTRELRWNATYFDYAASLPEDDVDYKMSHFVSNGDGLVVTVDSESGDVLWIQNYASPVVAFYVWQREGLRKVMHINVAVETLRYLTFMSGEVGRITKWKYPFPKETEAKSKLTPTLYVGKYSTSLYASPSMVHEGVAVVPRGSTLPLLEGPQTDGVTIGDKGECVITPSTDVKFDPGLKSKNKLNYLRNYWLLIGHHETPLSASTKMLERFPNNLPKHRENVIPADSEKKSFEEVINLVDQTSENAPTTVSRDVEEKPAHAPARPEAPVDSMLKD |  | 6.35 µM |  |
